Laboratory results: US20230364109A1, “GANAXOLONE FOR USE IN TREATMENT OF SUPER REFRACTORY STATUS EPILEPTICUS” (MARINUS PHARMACEUTICALS, INC., priority 2020, published 2023)

How the values were obtained:
[1] = system: patients with super refractory SE; details: Phase 3, randomized, double-blind, placebo-controlled; cited from earlier work
[2] = system: super refractory status epilepticus; details: for response of SRSE to treatment given before GNX: same patient, before pentobarbitol coma or during it (ACTH)

Row | Structure (SMILES) | response of SRSE to treatment given before GNX [2] | further results
1 | CC(=O)[C@H]1CC[C@H]2[C@@H]3CC[C@H]4C[C@H](O)CC[C@]4(C)[C@H]3CC[C@]12C [brexanolone] | – | efficacy over placebo in SRSE [1]: failed to show efficacy over placebo
2 | CN1C(=O)CN=C(c2ccccc2)c2cc(Cl)ccc21 [diazepam] | No response | –
3 | CCC1(C)CC(=O)NC1=O (stereo not shown) [ethoxsuccimide] | No response | –
4 | O=C1Nc2ccc(Cl)cc2C(c2ccccc2Cl)=NC1O (stereo not shown) [lorazepam] | No response | –
5 | Cc1ncc2n1-c1ccc(Cl)cc1C(c1ccccc1F)=NC2 [midazolam] | No response | –
6 | N#Cc1ccccc1-c1cc(-c2ccccn2)cn(-c2ccccc2)c1=O [perampanel] | No response | –
7 | CCCC(CCC)C(=O)O [valproic acid] | – | serum level ([2]; female, human, in vivo): 106 µg/mL
